Experimental data: US20250320193A1, “OXOISOINDOLINYL SUBSTITUTED PIPERIDINEDIONE DERIVATIVE AND USE THEREOF” (GLUETACS THERAPEUTICS (SHANGHAI) CO., LTD., priority 2022, published 2025)

Key:
[1] = target: human Cereblon WT GST-tagged protein (Homo sapiens (Human), UniProt Q96SW2); experiment: CRBN-binding affinity, HTRF (CEREBLON BINDING kit, CISBIO); conditions: HTRF inhibitory activity
Summary of the method: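 HTRF competition format: test compound displaces Thalidomide-Red from GST-tagged human Cereblon WT, detected with a Eu-labelled anti-GST antibody. Percent CRBN binding inhibition was derived from the 620 nm signal, normalized to solvent-control and protein-free blank wells.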

IKZF3 = IKZF3 (Homo sapiens (Human), UniProt Q96SW2+Q9UKT9); experiment: Western blot, substrate protein expression in hPBMC: IKZF3; format: cell-based; conditions: hPBMC, compound 500 nM, 24 hours, Western blot
Summary of the method: (§1)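 hPBMC, 1×10^6 cells/mL, 24 h compound exposure; RIPA lysis, BCA protein assay, SDS-PAGE, NC membrane immunoblot. Densitometry vs internal control → % protein remaining; degradation % = 100% − remaining; DC50 = conc. at 50% of DMSO band signal.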

GSPT1 = GSPT1 (Homo sapiens (Human), UniProt P15170+Q96SW2); experiment: Western blot, substrate protein expression in hPBMC: GSPT1; format: cell-based; conditions: hPBMC, compound 500 nM, 24 hours, Western blot
Summary of the method: as §1

[2] = system: MDA-MB-231 cells (human breast adenocarcinoma cells); experiment: Tumor cell proliferation inhibition, CCK-8; format: cell-based; conditions: MDA-MB-231 cells, CCK-8, read-out: inhibitory activity (IC50, nM) MDA-MB-231
Summary of the method: (§2)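 IC50 values reflect reduced CCK-8 signal in cells given compound 24 h after plating, across ten 5-fold dilutions with 10 μM as the maximum.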

[3] = system: H146 cells (human small cell lung carcinoma cells); experiment: Tumor cell proliferation inhibition, CCK-8; format: cell-based; conditions: NCI-H146, H146 cells, CCK-8, read-out: inhibitory activity (IC50, nM) H146
Summary of the method: as §2

[4] = system: CCRF-CEM (human acute lymphoblastic leukemia T-cells); experiment: Tumor cell proliferation inhibition, CCK-8; format: cell-based; conditions: CCRF-CEM cells, CCK-8, read-out: inhibitory activity (IC50, nM) CCRF-CEM
Summary of the method: as §2

[5] = system: Kasumi-1 (human acute myeloid leukemia cells); experiment: Tumor cell proliferation inhibition, CCK-8; format: cell-based; conditions: Kasumi-1 cells, CCK-8, read-out: inhibitory activity (IC50, nM) Kasumi-1
Summary of the method: as §2

[6] = system: Jurkat cells (human T-cell leukemia cells); experiment: Tumor cell proliferation inhibition, CCK-8; format: cell-based; conditions: Jurkat cells, CCK-8, read-out: inhibitory activity (IC50, nM) Jurkat
Summary of the method: as §2

[7] = system: MM.1S cells (human multiple myeloma cells); experiment: Tumor cell proliferation inhibition, CCK-8; format: cell-based; conditions: MM1.S, MM.1S cells, CCK-8, read-out: inhibitory activity (IC50, nM) MM.1S
Summary of the method: as §2

[8] = system: CAL-62 (human thyroid carcinoma cells); experiment: Tumor cell proliferation inhibition, CCK-8; format: cell-based; conditions: CAL-62 cells, CCK-8, read-out: inhibitory activity (IC50, nM) CAL-62
Summary of the method: as §2

[9] = system: MM.1R cells (dexamethasone-resistant human multiple myeloma cells); experiment: Tumor cell proliferation inhibition, CCK-8; format: cell-based; conditions: MM.1R cells, CCK-8, read-out: inhibitory activity (IC50, nM) MM.1R
Summary of the method: as §2

[10] = system: TMD8 cells (human diffuse large B-cell lymphoma cells); experiment: Tumor cell proliferation inhibition, CCK-8; format: cell-based; conditions: TMD8 cells, CCK-8, read-out: inhibitory activity (IC50, nM) TMD8
Summary of the method: as §2

IKZF1 = IKZF1 (Homo sapiens (Human), UniProt Q13422+Q96SW2); experiment: Western blot, substrate protein expression in hPBMC: IKZF1; format: cell-based; conditions: hPBMC, compound 500 nM, 24 hours, Western blot
Summary of the method: as §1

Sequence of IKZF3 (Q9UKT9 whole entry): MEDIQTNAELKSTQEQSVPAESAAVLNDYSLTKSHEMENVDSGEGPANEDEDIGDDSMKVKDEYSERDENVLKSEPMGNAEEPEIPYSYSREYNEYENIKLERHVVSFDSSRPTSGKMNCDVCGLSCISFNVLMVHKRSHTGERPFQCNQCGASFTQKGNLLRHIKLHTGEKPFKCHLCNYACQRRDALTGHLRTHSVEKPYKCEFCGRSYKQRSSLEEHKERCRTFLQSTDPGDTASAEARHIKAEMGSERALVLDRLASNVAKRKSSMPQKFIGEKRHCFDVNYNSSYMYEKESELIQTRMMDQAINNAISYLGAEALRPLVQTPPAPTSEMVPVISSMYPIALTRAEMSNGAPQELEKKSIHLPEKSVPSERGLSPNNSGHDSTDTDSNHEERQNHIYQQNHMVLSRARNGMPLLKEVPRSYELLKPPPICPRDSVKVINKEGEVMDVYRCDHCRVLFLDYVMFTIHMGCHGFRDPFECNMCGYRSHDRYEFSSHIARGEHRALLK
Sequence of IKZF3 (Q96SW2 whole entry): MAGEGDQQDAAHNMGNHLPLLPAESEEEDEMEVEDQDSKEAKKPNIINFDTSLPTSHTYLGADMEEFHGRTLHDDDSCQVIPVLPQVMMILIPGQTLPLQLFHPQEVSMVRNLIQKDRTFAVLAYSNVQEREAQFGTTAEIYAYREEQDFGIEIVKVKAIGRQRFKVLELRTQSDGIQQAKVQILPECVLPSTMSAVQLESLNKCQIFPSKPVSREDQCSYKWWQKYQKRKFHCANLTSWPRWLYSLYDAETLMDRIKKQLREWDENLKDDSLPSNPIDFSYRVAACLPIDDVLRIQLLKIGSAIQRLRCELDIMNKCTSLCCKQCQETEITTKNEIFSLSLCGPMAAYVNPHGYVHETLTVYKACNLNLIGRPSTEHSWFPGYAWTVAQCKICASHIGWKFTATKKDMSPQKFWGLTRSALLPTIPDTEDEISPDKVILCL
Sequence of IKZF3 (Q16531 whole entry partner): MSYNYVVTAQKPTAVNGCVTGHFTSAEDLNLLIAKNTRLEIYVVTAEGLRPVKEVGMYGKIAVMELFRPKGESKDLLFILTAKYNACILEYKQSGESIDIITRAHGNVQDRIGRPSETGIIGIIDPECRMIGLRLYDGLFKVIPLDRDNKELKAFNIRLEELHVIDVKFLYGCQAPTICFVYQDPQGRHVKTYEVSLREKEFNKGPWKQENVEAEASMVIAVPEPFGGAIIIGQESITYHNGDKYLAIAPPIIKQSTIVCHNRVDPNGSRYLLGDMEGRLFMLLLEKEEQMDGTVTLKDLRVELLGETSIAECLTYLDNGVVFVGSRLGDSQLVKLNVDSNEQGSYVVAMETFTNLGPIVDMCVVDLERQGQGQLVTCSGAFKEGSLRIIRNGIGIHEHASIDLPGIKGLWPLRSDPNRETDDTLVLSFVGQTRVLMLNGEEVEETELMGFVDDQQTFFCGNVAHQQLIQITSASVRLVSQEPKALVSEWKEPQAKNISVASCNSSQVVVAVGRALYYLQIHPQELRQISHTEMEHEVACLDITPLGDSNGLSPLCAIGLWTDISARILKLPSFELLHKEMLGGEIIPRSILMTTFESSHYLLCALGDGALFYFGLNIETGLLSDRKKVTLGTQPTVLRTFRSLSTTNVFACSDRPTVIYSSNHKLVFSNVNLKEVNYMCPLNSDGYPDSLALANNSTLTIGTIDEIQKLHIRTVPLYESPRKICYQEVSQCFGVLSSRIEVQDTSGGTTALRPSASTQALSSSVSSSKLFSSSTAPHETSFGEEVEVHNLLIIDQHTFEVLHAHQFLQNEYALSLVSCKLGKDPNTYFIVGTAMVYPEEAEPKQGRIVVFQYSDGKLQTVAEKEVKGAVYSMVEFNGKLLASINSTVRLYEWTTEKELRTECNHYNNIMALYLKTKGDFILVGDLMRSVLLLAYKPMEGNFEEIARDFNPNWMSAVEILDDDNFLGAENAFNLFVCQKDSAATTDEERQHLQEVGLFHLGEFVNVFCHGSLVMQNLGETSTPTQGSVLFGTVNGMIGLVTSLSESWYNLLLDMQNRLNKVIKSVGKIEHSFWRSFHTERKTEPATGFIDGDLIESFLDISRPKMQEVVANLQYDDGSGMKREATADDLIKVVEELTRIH
Sequence of GSPT1 (P15170 whole entry): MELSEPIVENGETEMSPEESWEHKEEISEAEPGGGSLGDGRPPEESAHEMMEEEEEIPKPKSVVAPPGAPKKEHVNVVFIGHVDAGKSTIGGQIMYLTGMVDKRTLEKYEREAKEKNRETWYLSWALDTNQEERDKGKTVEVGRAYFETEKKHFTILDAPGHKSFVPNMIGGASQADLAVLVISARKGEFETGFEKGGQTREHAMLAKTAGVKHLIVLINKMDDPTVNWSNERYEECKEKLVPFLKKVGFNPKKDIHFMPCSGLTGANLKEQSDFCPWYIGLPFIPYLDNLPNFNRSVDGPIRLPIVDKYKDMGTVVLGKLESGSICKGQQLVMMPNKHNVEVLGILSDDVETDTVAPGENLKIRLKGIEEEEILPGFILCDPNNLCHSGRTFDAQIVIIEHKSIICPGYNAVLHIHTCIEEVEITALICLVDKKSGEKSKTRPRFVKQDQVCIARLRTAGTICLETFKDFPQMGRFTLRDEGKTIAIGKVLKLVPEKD
Sequence of GSPT1 (Q96SW2 whole entry): as the sequence (Q96SW2 whole entry) above
Sequence of GSPT1 (Q16531 whole entry partner): as the sequence (Q16531 whole entry partner) above
Sequence of IKZF1 (Q13422 whole entry): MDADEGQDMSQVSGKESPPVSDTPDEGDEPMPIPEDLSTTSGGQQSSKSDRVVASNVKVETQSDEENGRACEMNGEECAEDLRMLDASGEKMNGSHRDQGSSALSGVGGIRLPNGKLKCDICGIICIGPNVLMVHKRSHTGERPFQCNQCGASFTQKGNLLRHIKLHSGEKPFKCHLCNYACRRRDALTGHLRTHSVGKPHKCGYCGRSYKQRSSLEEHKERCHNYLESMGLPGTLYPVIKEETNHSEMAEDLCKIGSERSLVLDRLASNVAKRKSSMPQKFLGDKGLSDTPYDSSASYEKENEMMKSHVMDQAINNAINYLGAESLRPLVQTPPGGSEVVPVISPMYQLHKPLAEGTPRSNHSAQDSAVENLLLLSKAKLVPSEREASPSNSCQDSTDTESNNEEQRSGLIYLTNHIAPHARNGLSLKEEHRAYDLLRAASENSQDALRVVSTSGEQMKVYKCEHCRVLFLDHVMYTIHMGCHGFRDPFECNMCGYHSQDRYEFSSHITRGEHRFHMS
Sequence of IKZF1 (Q96SW2 whole entry): as the sequence (Q96SW2 whole entry) above
Sequence of IKZF1 (Q16531 whole entry partner): as the sequence (Q16531 whole entry partner) above
Sequence of human Cereblon WT GST-tagged protein (Q96SW2 whole entry): as the sequence (Q96SW2 whole entry) above

IC50 [1] [nM] | IC50 [2] [nM] | IC50 [3] [nM] | IC50 [4] [nM] | IC50 [5] [nM] | IC50 [6] [nM] | IC50 [7] [nM] | IC50 [8] [nM] | IC50 [9] [nM] | IC50 [10] [nM] | SMILES | substrate protein remaining % IKZF3 (IKZF3) | substrate protein remaining % GSPT1 (GSPT1) | substrate protein remaining % IKZF1 (IKZF1)
500 to 1000 | 10 to 50 | 50 to 100 | 1 to 10 | 10 to 50 | 10 to 50 | 1 to 10 | 1 to 10 | 1 to 10 | 50 to 100 | O=C1CCC(N2Cc3cc(CN4CCN(C(c5ccc(F)cc5)c5ccc(F)cc5)CC4)ccc3C2=O)C(=O)N1 (stereo not shown) [GT-03386, 3-(5-((4-(bis(4-fluorophenyl)methyl)piperazin-1-yl)methyl)-1-oxoisoindolin-2-yl)piperidine-2,6-dione] | A (A represents 0% ≤ substrate protein remaining % ≤ 50%) | A (A represents 0% ≤ substrate protein remaining % ≤ 50%) | A (A represents 0% ≤ substrate protein remaining % ≤ 50%)
< 500 | 10 to 50 | 10 to 50 | 1 to 10 | 1 to 10 | 10 to 50 | 1 to 10 | 1 to 10 | 10 to 50 | 10 to 50 | O=C1CCC(N2Cc3c(ccc(CN4CCN(C(c5ccc(F)cc5)c5ccc(F)cc5)CC4)c3F)C2=O)C(=O)N1 (stereo not shown) [GT-03564, 3-(5-((4-(bis(4-fluorophenyl)methyl)piperazin-1-yl)methyl)-4-fluoro-1-oxoisoindolin-2-yl)piperidine-2,6-dione] | A (A represents 0% ≤ substrate protein remaining % ≤ 50%) | A (A represents 0% ≤ substrate protein remaining % ≤ 50%) | A (A represents 0% ≤ substrate protein remaining % ≤ 50%)
500 to 1000 | 10 to 50 | 10 to 50 | < 1 | 1 to 10 | 1 to 10 | 1 to 10 | 1 to 10 | 1 to 10 | 100 to 500 | O=C1CCC(N2Cc3cc(CN4CCN(C(c5ccc(F)cc5)c5ccc(F)cc5)CC4)c(F)cc3C2=O)C(=O)N1 (stereo not shown) [GT-03698, 3-(5-((4-(bis(4-fluorophenyl)methyl)piperazin-1-yl)methyl)-6-fluoro-1-oxoisoindolin-2-yl)piperidine-2,6-dione] | A (A represents 0% ≤ substrate protein remaining % ≤ 50%) | A (A represents 0% ≤ substrate protein remaining % ≤ 50%) | A (A represents 0% ≤ substrate protein remaining % ≤ 50%)
500 to 1000 | 10 to 50 | 50 to 100 | 1 to 10 | 10 to 50 | 10 to 50 | 1 to 10 | 1 to 10 | 1 to 10 | 100 to 500 | O=C1CCC(N2Cc3cc(CN4CCN(C(c5cccc(F)c5)c5cccc(F)c5)CC4)c(F)cc3C2=O)C(=O)N1 (stereo not shown) [GT-03701, 3-(5-((4-(bis(3-fluorophenyl)methyl)piperazin-1-yl)methyl)-6-fluoro-1-oxoisoindolin-2-yl)piperidine-2,6-dione] | A (A represents 0% ≤ substrate protein remaining % ≤ 50%) | A (A represents 0% ≤ substrate protein remaining % ≤ 50%) | A (A represents 0% ≤ substrate protein remaining % ≤ 50%)

Further lines, the molecule ahead of its results:

SMILES | IC50 [1] [nM] | IC50 [2] [nM] | IC50 [3] [nM] | IC50 [4] [nM] | IC50 [5] [nM] | IC50 [6] [nM] | IC50 [7] [nM] | IC50 [8] [nM] | IC50 [9] [nM] | IC50 [10] [nM] | substrate protein remaining % IKZF3 (IKZF3) | substrate protein remaining % GSPT1 (GSPT1) | substrate protein remaining % IKZF1 (IKZF1)
O=C1CCC(N2Cc3c(ccc(CN4CCN(C(c5ccccc5)c5ccccc5)CC4)c3F)C2=O)C(=O)N1 (stereo not shown) [GT-03466, 3-(5-((4-benzhydrylpiperazin-1-yl)methyl)-4-fluoro-1-oxoisoindolin-2-yl)piperidine-2,6-dione] | < 500 | 1 to 10 | 10 to 50 | < 1 | 1 to 10 | 1 to 10 | 1 to 10 | 1 to 10 | 1 to 10 | 10 to 50 | A (A represents 0% ≤ substrate protein remaining % ≤ 50%) | A (A represents 0% ≤ substrate protein remaining % ≤ 50%) | A (A represents 0% ≤ substrate protein remaining % ≤ 50%)
O=C1CCC(N2Cc3cc(CN4CCN(C(c5ccccc5)c5ccccc5)CC4)c(F)cc3C2=O)C(=O)N1 (stereo not shown) [GT-03700, 3-(5-((4-benzhydrylpiperazin-1-yl)methyl)-6-fluoro-1-oxoisoindolin-2-yl)piperidine-2,6-dione] | 500 to 1000 | 1 to 10 | 10 to 50 | 1 to 10 | 1 to 10 | 1 to 10 | 1 to 10 | 1 to 10 | 1 to 10 | 10 to 50 | B (B represents substrate protein remaining % > 50%) | A (A represents 0% ≤ substrate protein remaining % ≤ 50%) | A (A represents 0% ≤ substrate protein remaining % ≤ 50%)
O=C1CCC(N2Cc3cc(CN4CCN(C(c5cccc(F)c5)c5cccc(F)c5)CC4)ccc3C2=O)C(=O)N1 (stereo not shown) [GT-03702, 3-(5-((4-(bis(3-fluorophenyl)methyl)piperazin-1-yl)methyl)-1-oxoisoindolin-2-yl)piperidine-2,6-dione] | < 500 | 1 to 10 | 10 to 50 | < 1 | 1 to 10 | 1 to 10 | < 1 | < 1 | 1 to 10 | 10 to 50 | A (A represents 0% ≤ substrate protein remaining % ≤ 50%) | A (A represents 0% ≤ substrate protein remaining % ≤ 50%) | A (A represents 0% ≤ substrate protein remaining % ≤ 50%)
O=C1CCC(N2Cc3c(ccc(CN4CCN(C(c5cccc(F)c5)c5cccc(F)c5)CC4)c3F)C2=O)C(=O)N1 (stereo not shown) [GT-03703, 3-(5-((4-(bis(3-fluorophenyl)methyl)piperazin-1-yl)methyl)-4-fluoro-1-oxoisoindolin-2-yl)piperidine-2,6-dione] | < 500 | 1 to 10 | 10 to 50 | < 1 | 1 to 10 | 1 to 10 | 1 to 10 | 1 to 10 | 1 to 10 | 10 to 50 | A (A represents 0% ≤ substrate protein remaining % ≤ 50%) | A (A represents 0% ≤ substrate protein remaining % ≤ 50%) | A (A represents 0% ≤ substrate protein remaining % ≤ 50%)
O=C1CCC(N2Cc3c(ccc(CN4CCN(C(c5ccccc5)c5ccccn5)CC4)c3F)C2=O)C(=O)N1 (stereo not shown) [GT-03832, 3-(4-fluoro-1-oxo-5-((4-(phenyl(pyridin-2-yl)methyl)piperazin-1-yl)methyl)isoindolin-2-yl)piperidine-2,6-dione] | 500 to 1000 | 10 to 50 | 50 to 100 | 1 to 10 | 10 to 50 | 1 to 10 | 1 to 10 | 1 to 10 | 1 to 10 | 100 to 500 | A (A represents 0% ≤ substrate protein remaining % ≤ 50%) | A (A represents 0% ≤ substrate protein remaining % ≤ 50%) | B (B represents substrate protein remaining % > 50%)
O=C1CCC(N2Cc3cc(CN4CCN(C(c5ccccc5)c5ccccn5)CC4)c(F)cc3C2=O)C(=O)N1 (stereo not shown) [GT-03833, 3-(6-fluoro-1-oxo-5-((4-(phenyl(pyridin-2-yl)methyl)piperazin-1-yl)methyl)isoindolin-2-yl)piperidine-2,6-dione] | 1000 to 1900 | 10 to 50 | 10 to 50 | < 1 | 1 to 10 | 1 to 10 | 1 to 10 | 1 to 10 | 1 to 10 | 10 to 50 | A (A represents 0% ≤ substrate protein remaining % ≤ 50%) | A (A represents 0% ≤ substrate protein remaining % ≤ 50%) | B (B represents substrate protein remaining % > 50%)
